Measurements published in ChEMBL document CHEMBL6092212, “Discovery of novel substituted (Z)-N'-hydroxy-3-(3-phenylureido)benzimidamide derivatives as multifunctional molecules targeting pathological hallmarks of Alzheimer's disease” (Eur J Med Chem, 2024).
Activity calls are given as the source filed them. The rule behind the calls is not given here.

Assays:
[1] = target: Amyloid-beta precursor protein (Homo sapiens) (UniProt P05067); assay: Inhibition of self-mediated Amyloid beta (1 to 42)(unknown origin) aggregation at 3.125 uM incubated for 3 days by ThT assay; details: time 3.0 day
Amyloid-beta precursor protein (Homo sapiens), sequence (P05067 whole entry): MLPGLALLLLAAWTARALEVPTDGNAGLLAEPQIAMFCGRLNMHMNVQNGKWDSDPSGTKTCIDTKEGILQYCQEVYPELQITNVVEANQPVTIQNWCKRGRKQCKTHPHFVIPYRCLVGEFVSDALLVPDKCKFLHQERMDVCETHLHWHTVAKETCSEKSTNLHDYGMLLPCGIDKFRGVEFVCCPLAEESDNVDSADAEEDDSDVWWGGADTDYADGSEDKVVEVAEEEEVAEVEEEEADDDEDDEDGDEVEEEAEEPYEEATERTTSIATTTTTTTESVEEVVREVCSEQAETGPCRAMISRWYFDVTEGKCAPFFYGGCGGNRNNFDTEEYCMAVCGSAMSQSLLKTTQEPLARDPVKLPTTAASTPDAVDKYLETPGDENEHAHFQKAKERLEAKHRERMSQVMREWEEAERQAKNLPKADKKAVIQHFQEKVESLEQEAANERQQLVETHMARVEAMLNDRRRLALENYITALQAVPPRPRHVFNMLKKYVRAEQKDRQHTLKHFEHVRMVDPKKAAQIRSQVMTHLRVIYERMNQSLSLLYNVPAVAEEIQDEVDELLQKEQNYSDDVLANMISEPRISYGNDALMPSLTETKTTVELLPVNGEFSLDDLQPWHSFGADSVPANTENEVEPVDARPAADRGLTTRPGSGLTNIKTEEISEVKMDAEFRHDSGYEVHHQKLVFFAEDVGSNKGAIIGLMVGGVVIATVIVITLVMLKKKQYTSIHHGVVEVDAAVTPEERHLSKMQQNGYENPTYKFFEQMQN

Mus musculus [2] = assay: Protection against scopolamine-associated dementia in Swiss albino mouse model assessed as increase in latency period at 10 mg/kg, ip measured after 14 days by Passive avoidance task method; assay type: functional, organism-based; details: time 14.0 day
[3] = target: Cholinesterase (Equus caballus) (UniProt P81908); assay: Competitive inhibition of equine BChE using BTCI as substrate at 1 to 10 uM preincubated for 30 mins followed by substrate addition by Ellman's method; details: dose 1-10 µM
Cholinesterase (Equus caballus), sequence (P81908 whole entry): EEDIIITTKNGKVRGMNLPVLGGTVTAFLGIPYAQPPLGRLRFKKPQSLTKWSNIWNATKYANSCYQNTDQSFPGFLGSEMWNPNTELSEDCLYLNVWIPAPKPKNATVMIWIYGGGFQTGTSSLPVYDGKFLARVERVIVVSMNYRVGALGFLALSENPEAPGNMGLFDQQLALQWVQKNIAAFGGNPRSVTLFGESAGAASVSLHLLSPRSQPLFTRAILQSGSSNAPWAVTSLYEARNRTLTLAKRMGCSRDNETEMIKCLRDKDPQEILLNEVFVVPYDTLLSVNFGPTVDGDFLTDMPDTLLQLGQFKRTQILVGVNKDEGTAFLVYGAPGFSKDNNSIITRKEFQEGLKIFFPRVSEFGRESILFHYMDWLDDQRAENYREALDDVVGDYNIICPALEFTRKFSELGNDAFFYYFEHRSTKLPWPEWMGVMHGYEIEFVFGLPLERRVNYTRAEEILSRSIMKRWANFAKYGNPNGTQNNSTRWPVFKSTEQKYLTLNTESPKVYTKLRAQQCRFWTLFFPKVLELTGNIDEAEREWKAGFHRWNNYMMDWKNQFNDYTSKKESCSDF

Mus musculus [4] = assay: Neuroprotective activity against scopolamine-induced cognitive deficit Swiss albino mouse model assessed as increase in PSD95 mRNA level at 10 mg/kg, ip measured after 14 days by RT-PCR analysis; assay type: functional, organism-based; details: time 14.0 day
[5] = Antioxidant activity assessed as inhibition of DPPH radical scavenging activity incubated for 30 mins by absorbance based analysis; assay type: functional
HMC3 [6] = assay: Antiinflammatory activity against LPS/ATP-induced human HMC3 cells assessed as reduction in NF-kappaB level at 12.5 uM by immunocytochemistry based analysis; assay type: functional, cell-based
Mus musculus [7] = assay: Neuroprotective activity against scopolamine-induced cognitive deficit Swiss albino mouse model assessed as increase in GAP43 mRNA level at 10 mg/kg, ip measured after 14 days by RT-PCR analysis; assay type: functional, organism-based; details: time 14.0 day
Mus musculus [8] = assay: Reversal of scopolamine-induced cognitive deficit Swiss albino mouse model assessed as increase in time in platform quadrant at 10 mg/kg, ip measured after 5 days by Morris water maze test; assay type: functional, organism-based; details: time 5.0 day
Mus musculus [9] = assay: Neuroprotective activity against scopolamine-induced cognitive deficit Swiss albino mouse model assessed as increase in TRKB mRNA level at 10 mg/kg, ip measured after 14 days by RT-PCR analysis; assay type: functional, organism-based; details: time 14.0 day
HMC3 [10] = assay: Inhibition of LPS/ATP-induced cytotoxicity against human HMC3 cells at 12.5 uM incubated for 24 hrs by MTT assay; assay type: functional, cell-based
[11] = Acute toxicity in Swiss albino mouse assessed as signs of diarrhea at 2000 mg/kg, po measured 14 days post-administration; assay type: organism-based; details: in vivo, 336 h, time 14 day
[12] = target: Microtubule-associated protein tau (Homo sapiens) (UniProt P10636); assay: Inhibition of Tau (unknown origin) aggregation at 1.125 uM incubated for 3 days by ThT assay; details: time 3.0 day
Microtubule-associated protein tau (Homo sapiens), sequence (P10636 whole entry): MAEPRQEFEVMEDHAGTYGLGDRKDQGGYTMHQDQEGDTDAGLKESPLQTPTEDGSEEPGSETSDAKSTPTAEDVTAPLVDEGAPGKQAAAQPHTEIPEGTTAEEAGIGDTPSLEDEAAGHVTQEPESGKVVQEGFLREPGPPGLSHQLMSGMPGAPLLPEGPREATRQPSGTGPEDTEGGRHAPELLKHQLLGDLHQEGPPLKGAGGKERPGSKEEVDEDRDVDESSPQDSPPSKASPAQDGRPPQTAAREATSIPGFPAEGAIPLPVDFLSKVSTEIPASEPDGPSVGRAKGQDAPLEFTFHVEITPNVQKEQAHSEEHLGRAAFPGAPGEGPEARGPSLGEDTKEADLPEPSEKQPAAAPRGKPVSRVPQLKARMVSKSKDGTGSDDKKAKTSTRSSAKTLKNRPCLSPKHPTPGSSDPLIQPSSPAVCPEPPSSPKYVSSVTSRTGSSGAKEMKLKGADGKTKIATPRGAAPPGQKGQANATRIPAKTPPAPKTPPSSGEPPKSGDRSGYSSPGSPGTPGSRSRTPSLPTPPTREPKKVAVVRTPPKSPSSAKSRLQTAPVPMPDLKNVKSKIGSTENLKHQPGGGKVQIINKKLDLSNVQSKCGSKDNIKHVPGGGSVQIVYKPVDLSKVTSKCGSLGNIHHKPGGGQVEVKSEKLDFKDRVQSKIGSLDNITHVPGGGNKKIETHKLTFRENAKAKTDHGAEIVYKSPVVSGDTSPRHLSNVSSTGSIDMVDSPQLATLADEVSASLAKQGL

[13] = Permeability of compound in PBS at pH 7.4 at 500 uM by PAMPA; assay type: ADME; details: read-out: permeability
Acetylcholinesterase [14] = target: T1, Acetylcholinesterase (Homo sapiens, UniProt P22303); assay: Inhibition of human AChE using ATCI as substrate preincubated for 30 mins followed by substrate addition measured after 30 mins by Ellman's method
T1 sequence (P22303 whole entry): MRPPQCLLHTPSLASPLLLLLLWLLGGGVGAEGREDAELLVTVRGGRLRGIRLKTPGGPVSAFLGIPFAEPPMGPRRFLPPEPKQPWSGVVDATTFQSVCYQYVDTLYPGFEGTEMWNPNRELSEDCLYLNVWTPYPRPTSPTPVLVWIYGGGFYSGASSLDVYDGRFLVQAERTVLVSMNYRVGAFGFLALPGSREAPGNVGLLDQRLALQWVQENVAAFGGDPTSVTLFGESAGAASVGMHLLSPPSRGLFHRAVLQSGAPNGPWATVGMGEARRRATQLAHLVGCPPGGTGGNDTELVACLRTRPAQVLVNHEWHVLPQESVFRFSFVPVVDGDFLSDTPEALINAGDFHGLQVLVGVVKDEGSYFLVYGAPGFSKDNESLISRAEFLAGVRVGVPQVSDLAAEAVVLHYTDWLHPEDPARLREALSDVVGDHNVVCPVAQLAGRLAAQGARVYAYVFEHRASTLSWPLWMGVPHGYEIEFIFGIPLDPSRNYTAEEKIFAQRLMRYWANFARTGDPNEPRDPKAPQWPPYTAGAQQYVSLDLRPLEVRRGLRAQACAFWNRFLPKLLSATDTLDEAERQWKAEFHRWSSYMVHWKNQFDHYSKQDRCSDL

[15] = Acute toxicity in Swiss albino mouse assessed as animal survival at 2000 mg/kg, po measured 14 days post-administration; assay type: organism-based; details: in vivo, 336 h, time 14 day
HMC3 [16] = assay: Antiinflammatory activity against LPS/ATP-induced human HMC3 cells assessed as increase in vimentin level at 12.5 uM by immunocytochemistry based analysis; assay type: functional, cell-based
Mus musculus [17] = assay: Neuroprotective activity against scopolamine-induced cognitive deficit Swiss albino mouse model assessed as increase in CREB1 mRNA level at 10 mg/kg, ip measured after 14 days by RT-PCR analysis; assay type: functional, organism-based; details: time 14.0 day
Mus musculus [18] = assay: Neuroprotective activity against scopolamine-induced cognitive deficit Swiss albino mouse model assessed as increase in Nr4a2 mRNA level at 10 mg/kg, ip measured after 14 days by RT-PCR analysis; assay type: functional, organism-based; details: time 14.0 day
[19] = Antioxidant activity assessed as DPPH radical scavenging activity at 20 to 200 uM incubated for 30 mins by absorbance based analysis relative to control; assay type: functional; details: dose 20-200 µM
PC-12 = assay: Cytotoxicity against rat PC-12 cells upto 20 uM incubated for 24 hrs by MTT assay; assay type: toxicity, cell-based; details: pc-12, 24 h
[20] = Induction of NO release upto 100 uM incubated for 5 to 10 mins by Griess assay; assay type: functional; details: time 5-10 min
[21] = Acute toxicity in Swiss albino mouse assessed as signs of tremor at 2000 mg/kg, po measured 14 days post-administration; assay type: organism-based; details: in vivo, 336 h, time 14 day
Mus musculus [22] = assay: Neuroprotective activity against scopolamine-induced cognitive deficit Swiss albino mouse model assessed as increase in c-FOS mRNA level at 10 mg/kg, ip measured after 14 days by RT-PCR analysis; assay type: functional, organism-based; details: time 14.0 day
HMC3 [23] = assay: Induction of mitochondrial membrane potential stability in LPS/ATP-induced human HMC3 cells at 12.5 uM incubated for 24 hrs by Rhodamine 123/JC-1 staining based analysis; assay type: functional, cell-based
HMC3 [24] = assay: Inhibition of mitochondrial impairment in LPS/ATP-induced human HMC3 cells at 12.5 uM incubated for 24 hrs by Rhodamine 123/JC-1 staining based analysis; assay type: functional, cell-based
Mus musculus [25] = assay: Reversal of scopolamine-induced cognitive deficit Swiss albino mouse model assessed as increase in number of entries in target quadrant at 10 mg/kg, ip measured after 5 days by Morris water maze test; assay type: functional, organism-based; details: time 5.0 day
HMC3 [26] = assay: Antiinflammatory activity against LPS/ATP-induced human HMC3 cells assessed as increase in Nrf2 level at 12.5 uM by Western blot analysis; assay type: functional, cell-based
HMC3 [27] = assay: Antiinflammatory activity against LPS/ATP-induced human HMC3 cells assessed as reduction in IL-18 level at 12.5 uM by Western blot analysis; assay type: functional, cell-based
[28] = Acute toxicity in Swiss albino mouse assessed as signs of convulsion at 2000 mg/kg, po measured 14 days post-administration; assay type: organism-based; details: in vivo, 336 h, time 14 day
Mus musculus [29] = assay: Reversal of scopolamine-induced cognitive deficit Swiss albino mouse model assessed as reduction in distance traveled to reach platform at 10 mg/kg, ip measured after 5 days by Morris water maze test; assay type: functional, organism-based; details: time 5.0 day
HMC3 [30] = assay: Antiinflammatory activity against LPS/ATP-induced human HMC3 cells assessed as reduction in NLRP3 level at 12.5 uM by Western blot analysis; assay type: functional, cell-based
HMC3 [31] = assay: Antiinflammatory activity against LPS/ATP-induced human HMC3 cells assessed as decrease in Iba-1 level at 12.5 uM by Western blot analysis; assay type: functional, cell-based
HMC3 [32] = assay: Inhibition of ROS production in LPS/ATP-induced human HMC3 cells at 12.5 uM incubated for 24 hrs by MitoSOX Red FM staining based analysis; assay type: functional, cell-based
HMC3 [33] = assay: Antiinflammatory activity against LPS/ATP-induced human HMC3 cells assessed as reduction in caspase-1 level at 12.5 uM by Western blot analysis; assay type: functional, cell-based
Cholinesterase [34] = target: Cholinesterase (Homo sapiens, UniProt P06276); assay: Inhibition of human BChE using BTCI as substrate preincubated for 30 mins followed by substrate addition measured after 30 mins by Ellman's method
Cholinesterase (Homo sapiens, UniProt P06276), sequence (P06276 whole entry): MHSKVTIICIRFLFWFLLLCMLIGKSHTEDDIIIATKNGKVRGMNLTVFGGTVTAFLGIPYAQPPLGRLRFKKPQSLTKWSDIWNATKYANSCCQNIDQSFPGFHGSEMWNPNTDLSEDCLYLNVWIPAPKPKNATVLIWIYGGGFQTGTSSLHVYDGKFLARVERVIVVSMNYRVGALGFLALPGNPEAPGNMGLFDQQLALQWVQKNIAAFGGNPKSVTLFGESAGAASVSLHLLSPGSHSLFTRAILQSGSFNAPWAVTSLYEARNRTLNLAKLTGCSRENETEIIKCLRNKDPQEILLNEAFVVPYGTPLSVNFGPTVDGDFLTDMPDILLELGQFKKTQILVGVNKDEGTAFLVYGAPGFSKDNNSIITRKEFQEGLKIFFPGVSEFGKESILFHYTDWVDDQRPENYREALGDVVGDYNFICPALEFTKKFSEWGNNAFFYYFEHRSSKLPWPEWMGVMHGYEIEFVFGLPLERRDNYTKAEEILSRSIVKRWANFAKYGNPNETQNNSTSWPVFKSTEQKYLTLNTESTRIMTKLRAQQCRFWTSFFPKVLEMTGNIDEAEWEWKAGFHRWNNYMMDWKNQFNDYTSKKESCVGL

Mus musculus [35] = assay: Neuroprotective activity against scopolamine-induced cognitive deficit Swiss albino mouse model assessed as increase in BDNF mRNA level at 10 mg/kg, ip measured after 14 days by RT-PCR analysis; assay type: functional, organism-based; details: time 14.0 day
Mus musculus [36] = assay: Reversal of scopolamine-induced cognitive deficit Swiss albino mouse model assessed as decrease in escape latency at 10 mg/kg, ip measured for 5 days by Morris water maze test; assay type: functional, organism-based; details: time 5.0 day
HMC3 [37] = assay: Antiinflammatory activity against LPS/ATP-induced human HMC3 cells assessed as reduction in NLRP3 level at 12.5 uM by immunocytochemistry based analysis; assay type: functional, cell-based
HMC3 [38] = assay: Antiinflammatory activity against LPS/ATP-induced human HMC3 cells assessed as reduction in IL-1beta level at 12.5 uM by Western blot analysis; assay type: functional, cell-based
HMC3 [39] = assay: Antiinflammatory activity against LPS/ATP-induced human HMC3 cells assessed as reduction in nuclear translocation of NF-kappaB at 12.5 uM by immunocytochemistry based analysis; assay type: functional, cell-based
[40] = Acute toxicity in Swiss albino mouse assessed as signs of over-weight gain at 2000 mg/kg, po measured 14 days post-administration; assay type: organism-based; details: in vivo, 336 h, time 14 day
Mus musculus [41] = assay: Neuroprotective activity against scopolamine-induced cognitive deficit Swiss albino mouse model assessed as increase in PKA mRNA level at 10 mg/kg, ip measured after 14 days by RT-PCR analysis; assay type: functional, organism-based; details: time 14.0 day
Acetylcholinesterase [42] = target: T1, Acetylcholinesterase; assay: Mixed inhibition of human AChE using ATCI as substrate at 0.1 to 5 uM preincubated for 30 mins followed by substrate addition by Ellman's method; details: dose 0.1-5 µM
Cholinesterase [43] = target: Cholinesterase (Equus caballus, UniProt P81908); assay: Inhibition of equine BChE using BTCI as substrate preincubated for 30 mins followed by substrate addition measured after 30 mins by Ellman's method
Cholinesterase (Equus caballus, UniProt P81908), sequence (P81908 whole entry): as the sequence (P81908 whole entry) above

[44] = Acute toxicity in Swiss albino mouse assessed as signs of abnormal behaviour at 2000 mg/kg, po measured 14 days post-administration; assay type: organism-based; details: in vivo, 336 h, time 14 day
[45] = Metal chelating activity assessed as compound-Fe3+ complex formation at 600 uM incubated for 24 hrs by UV spectrophotometry
Mus musculus [46] = assay: Neuroprotective activity against scopolamine-induced cognitive deficit Swiss albino mouse model assessed as increase in TRKB mRNA level at 1.5 mg/kg, ip measured after 14 days by RT-PCR analysis; assay type: functional, organism-based; details: time 14.0 day
Mus musculus [47] = assay: Neuroprotective activity against scopolamine-induced cognitive deficit Swiss albino mouse model assessed as increase in BDNF mRNA level at 1.5 mg/kg, ip measured after 14 days by RT-PCR analysis; assay type: functional, organism-based; details: time 14.0 day
Mus musculus [48] = assay: Reversal of scopolamine-induced cognitive deficit Swiss albino mouse model assessed as decrease in escape latency at 1.5 mg/kg, ip measured for 5 days by Morris water maze test; assay type: functional, organism-based; details: time 5.0 day
Mus musculus [49] = assay: Protection against scopolamine-associated dementia in Swiss albino mouse model assessed as increase in latency period at 1.5 mg/kg, ip measured after 14 days by Passive avoidance task method; assay type: functional, organism-based; details: time 14.0 day
Mus musculus [50] = assay: Reversal of scopolamine-induced cognitive deficit Swiss albino mouse model assessed as increase in time in platform quadrant at 1.5 mg/kg, ip measured after 5 days by Morris water maze test; assay type: functional, organism-based; details: time 5.0 day

SMILES: N/C(=N\O)c1cccc(NC(=O)Nc2cccc(F)c2)c1
- inhibition [1]: Active
- Activity (Mus musculus [2]): Active
- inhibition [3]: Active
- Activity (Mus musculus [4]): Active
- IC50 [5]: 16.1 µM
- Activity (HMC3 [6]): Active
- Activity (Mus musculus [7]): Active
- Activity (Mus musculus [8]): Active
- Activity (Mus musculus [9]): Active
- inhibition (HMC3 [10]): Active
- Activity [11]: Non-toxic
- inhibition [12]: Active
- Papp at 500 µM [13]: 10.7 ×10⁻⁶ cm/s
- IC50 (Acetylcholinesterase [14]): 1.72 µM
- Activity [15]: Non-toxic
- Activity (HMC3 [16]): Active
- Activity (Mus musculus [17]): Active
- Activity (Mus musculus [18]): Active
- Activity [19]: 46.1%
- Activity (PC-12): Non-toxic
- Activity [20]: inactive
- Activity [21]: Non-toxic
- Activity (Mus musculus [22]): Active
- Activity (HMC3 [23]): Active
- inhibition (HMC3 [24]): Active
- Activity (Mus musculus [25]): Active
- Activity (HMC3 [26]): Active
- Activity (HMC3 [27]): Active
- Activity [28]: Non-toxic
- Activity (Mus musculus [29]): Active
- Activity (HMC3 [30]): Active
- Activity (HMC3 [31]): Active
- inhibition (HMC3 [32]): Active
- Activity (HMC3 [33]): Active
- IC50 (Cholinesterase [34]): 5.21 µM
- Activity (Mus musculus [35]): Active
- Activity (Mus musculus [36]): Active
- Activity (HMC3 [37]): Active
- Activity (HMC3 [38]): Active
- Activity (HMC3 [39]): Active
- Activity [40]: Non-toxic
- Activity (Mus musculus [41]): Active
- inhibition (Acetylcholinesterase [42]): Active
- IC50 (Cholinesterase [43]): 6.69 µM
- Activity [44]: Non-toxic
- Activity [45]: inactive

SMILES: CCN(C)C(=O)Oc1cccc([C@H](C)N(C)C)c1
- Activity (Mus musculus [46]): Active
- Activity (Mus musculus [47]): Active
- Activity (Mus musculus [48]): Active
- Activity [19]: 4.73%
- Activity (Mus musculus [49]): Active
- Activity (Mus musculus [50]): Active
